Assay results: ChEMBL document CHEMBL4417635, “2-hydroxyarylamide derivative or pharmaceutically acceptable salt thereof, preparation method thereof, and pharmaceutical composition for preventing or treating cancer containing same as active ingredient” (2013)

Tests used:
[1] = target: Transmembrane protease serine 4 (Homo sapiens) (UniProt Q9NRS4); assay: (§1) Inhibition of TMPRSS4 serine protease domain (Val 205 to Leu 437 residues) (unknown origin) expressed in Escherichia coli BL21 (DE3) at 100 uM using […]-Gln-Ala-Arg-7-amido-4-methylcoumarin hydrochloride substrate and measured for 5 mins at 5 mins intervals by fluorescence based assay relative to control
Sequence of Transmembrane protease serine 4 (Homo sapiens) (Q9NRS4 whole entry, the tested form may be a part): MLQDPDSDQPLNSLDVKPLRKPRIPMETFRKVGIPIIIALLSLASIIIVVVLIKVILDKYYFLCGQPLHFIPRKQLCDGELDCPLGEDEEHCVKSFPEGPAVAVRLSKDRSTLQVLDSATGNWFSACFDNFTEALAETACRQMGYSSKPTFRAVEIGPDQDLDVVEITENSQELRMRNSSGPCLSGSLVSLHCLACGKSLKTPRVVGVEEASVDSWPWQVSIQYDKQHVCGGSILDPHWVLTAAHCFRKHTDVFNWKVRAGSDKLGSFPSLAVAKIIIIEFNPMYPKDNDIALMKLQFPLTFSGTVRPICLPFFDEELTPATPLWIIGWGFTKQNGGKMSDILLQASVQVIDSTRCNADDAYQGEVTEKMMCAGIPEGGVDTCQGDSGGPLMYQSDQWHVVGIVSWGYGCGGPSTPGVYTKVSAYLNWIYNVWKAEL

[2] = target: Transmembrane protease serine 4 (Homo sapiens) (UniProt Q9NRS4); assay: as §1, with “30” for “100”
[3] = target: Transmembrane protease serine 4 (Homo sapiens) (UniProt Q9NRS4); assay: Inhibition of TMPRSS4 serine protease domain (Val 205 to Leu 437 residues) (unknown origin) expressed in Escherichia coli BL21 (DE3) using […]-Gln-Ala-Arg-7-amido-4-methylcoumarin hydrochloride substrate and measured for 5 mins at 5 mins intervals by fluorescence based assay relative to control
[4] = target: Transmembrane protease serine 4 (Homo sapiens) (UniProt Q9NRS4); assay: Inhibition of TMPRSS4 (unknown origin) expressed in human SW480 cells assessed as reduction in cell migration at 2 uM incubated for 48 hrs by crystal violet staining based assay relative to control
[5] = target: Transmembrane protease serine 4 (Homo sapiens) (UniProt Q9NRS4); assay: as §1, with “10” for “100”
[6] = target: Transmembrane protease serine 4 (Homo sapiens) (UniProt Q9NRS4); assay: Inhibition of TMPRSS4 (unknown origin) expressed in human SW480 cells assessed as reduction in cell migration at 0.8 uM incubated for 48 hrs by crystal violet staining based assay relative to control
[7] = target: Transmembrane protease serine 4 (Homo sapiens) (UniProt Q9NRS4); assay: Inhibition of TMPRSS4 (unknown origin) expressed in human SW480 cells assessed as reduction in cell migration at 5 uM incubated for 48 hrs by crystal violet staining based assay relative to control
[8] = target: Transmembrane protease serine 4 (Homo sapiens) (UniProt Q9NRS4); assay: Inhibition of TMPRSS4 (unknown origin) expressed in human SW480 cells assessed as reduction in cell migration at 25 uM incubated for 48 hrs by crystal violet staining based assay relative to control

SMILES	inhibition [1]	inhibition [2]	inhibition [3]	inhibition [4]	inhibition [5]	inhibition [6]	inhibition [7]	inhibition [8]
N#Cc1ccc(NC(=O)c2cc(Cl)ccc2O)cc1C(F)(F)F	100%	88%	Dose-dependent effect	81%	–	–	–	–
O=C(Nc1ccc(Cl)c(C(F)(F)F)c1)c1cc(Cl)ccc1O	99%	95%	Dose-dependent effect	–	71%	68%	–	–
O=C(Nc1cc(C(F)(F)F)cc(C(F)(F)F)c1)c1cc(Cl)ccc1O	100%	96%	Dose-dependent effect	–	64%	76%	–	–
COc1cc(NC(=O)c2cc(Cl)ccc2O)cc(C(F)(F)F)c1	99%	88%	Dose-dependent effect	–	67%	49%	–	–
N#Cc1ccc(NC(=O)c2cc(Cl)ccc2O)c(Cl)c1	100%	92%	Dose-dependent effect	54%	–	–	–	–
O=C(Nc1nc(-c2ccccc2)cs1)c1cc(Cl)ccc1O	98%	91%	Dose-dependent effect	75%	–	–	–	–
N#Cc1ccc(NC(=O)c2cc(Cl)ccc2O)nc1	–	63%	Dose-dependent effect	–	26%	–	44%	–
O=C(Nc1cnc2ccccc2c1)c1cc(Cl)ccc1O	75%	8%	Dose-dependent effect	–	–	–	–	51%
O=C(Nc1nnc(C(F)(F)F)s1)c1cc(Cl)ccc1O	100%	75%	Dose-dependent effect	–	–	–	29%	–
